Results taken from US9828622B2, “Photoactivatable antimicrobial agents and therapeutic and diagnostic methods of using same” (The General Hospital Corporation, priority 2008, dated 2017).
Entries after “also recorded” stand apart in the source; their conditions may differ. Like-named read-outs stand apart in the source and are kept apart here.

How the values were obtained:
[1] = Photosensitizing efficacy
Source text: The terminal carboxyl group with the flexible alkyl chain provides an ideal site for conjugation. 7-amino-3-chloromethyl-3-cephem-4-carboxylic acid p-methoxybenzyl ester (ACLE, commercial available) is used as cephalosporin scaffold. ACLE is a common starting material to synthesize cephalosporin derivatives. It integrates an amino group at 7-position. By replacing chlorine at 3′-position with 4-amino-thiophenol provides an additional amino group therefore each ACLE molecule can accommodate two EtNBS-COOH molecules to form a static quenching pair.

[2] = target: purified B. cereus beta-lactamase; experiment: Competitive substrate inhibition of β-LEAP hydrolysis, purified enzyme; format: biochemical, Bacillus cereus; settings: competitive beta-lactam substrate; 384 multi-well plate
Protocol: (§1) (a.) inhibition constants of a panel of β-lactams for the competitive substrate inhibition of β-LEAP hydrolysis by B. cereus β-lactamase, (b.) inhibition constants for β-LEAP hydrolysis by bacterial suspensions, (c.) inhibition profiles of panel of β-lactams for B. cereus, (d.) MICs of panel of β-lactams for B. cereus. […] Statistical significance was determined via Tukey multiple comparison test using Graphpad Prism 5. Horizontal bars connected by solid intersections indicate significant difference.
(§2) This Example describes a new methodology for use in characterizing beta-lactamases by using a competitive substrate inhibition assay. It is believed that no competitive substrate inhibition assays for determining beta-lactamase functionality are currently in use by clinical microbiology laboratories. This new approach is based on exploiting the sensitivity and mechanism of the β-LEAP compound of the invention. More in particular, this approach is based on measuring the level of induced-fluorescence caused by the cleavage/hydrolysis and consequent activation of the β-LEAP compound by beta-lactamase enzymes under evaluation while also in the presence of, or “in competition” with, different types and amounts of beta-lactamase enzyme substrates. The degree of inhibition of β-LEAP hydrolysis/fluorescence due to competition with the beta-lactam competitor substrates is determined, which provides the basis for determining beta-lactamase functionality.
(§3) This approach involved combining in a 384 multi-well assay plate format purified B. cereus beta-lactamase or bacterial suspensions with the β-LEAP of the invention and a competitive beta-lactam substrate, including amoxicillin, clavulanic acid, ampicillin, penicillin G, carbenicillin, cefazolin, cefatoxime or ceftazidime.

B. cereus = experiment: Growth inhibition / MIC assay; format: cell-based, Bacillus cereus
Protocol: as §1, §3

[3] = target: Bacillus cereus 5/β bacterial suspensions; experiment: Competitive substrate inhibition of β-LEAP hydrolysis, bacterial suspensions; format: cell-based; settings: competitive beta-lactam substrate; whole bacteria suspensions
Protocol: as §1, §2, §3

Compound | inhibition of β-LEAP hydrolysis/fluorescence (inhibition constants, Ki, FIG. 13a) [2] | in vitro growth inhibition (MIC assay) (B. cereus) | inhibition of β-LEAP hydrolysis/fluorescence (inhibition constants, Ki, FIG. 13b) [3] | also measured
CCN(CC)c1ccc2nc3c(cc(NCCCCC(=O)O)c4ccccc43)[s+]c2c1 [EtNBS-COOH, 5-(4′-carboxybutylamino)-9-diethylaminobenzo[a]phenothiazine] | – | – | – | photosensitizing efficacy [1]: excellent photosensitizing efficacy
CC1(C)S[C@@H]2[C@H](NC(=O)[C@H](N)c3ccc(O)cc3)C(=O)N2[C@H]1C(=O)O [amoxicillin] | detected | no inhibition | – | in vitro growth inhibition (MIC assay) (B. cereus; listed as Amoxicillin): did not inhibit the growth
CC1(C)S[C@@H]2[C@H](NC(=O)[C@H](N)c3ccccc3)C(=O)N2[C@H]1C(=O)O [ampicillin] | detected | did not inhibit the growth | – | in vitro growth inhibition (MIC assay) (B. cereus; listed as ampillin): no inhibition
CO/N=C(\C(=O)N[C@@H]1C(=O)N2C(C(=O)O)=C(COC(C)=O)CS[C@H]12)c1csc(N)n1 [cefatoxime] | more effective inhibitors | – | more effective inhibitors | –
CC(C)(O/N=C(\C(=O)N[C@@H]1C(=O)N2C(C(=O)[O-])=C(C[n+]3ccccc3)CS[C@H]12)c1csc(N)n1)C(=O)O [ceftazidime] | more effective inhibitors | – | more effective inhibitors | –
O=C(O)[C@H]1/C(=C/CO)O[C@@H]2CC(=O)N21 [clavulanic acid] | – | no inhibition; also recorded: did not inhibit the growth | – | –
cephalothin | more effective inhibitors | – | more effective inhibitors | –
